Assay results taken from publication PMC7789826 (Journal of Molecular Structure, 2021).

Molecular target: voltage-gated potassium channel Kv1.3 (Homo sapiens, UniProt P22001)
Test: whole-cell patch clamp, voltage ramp, endogenous Kv1.[…] current in Jurkat T cells
Assay type: cell-based

Sequence of voltage-gated potassium channel Kv1.3 (P22001 whole entry): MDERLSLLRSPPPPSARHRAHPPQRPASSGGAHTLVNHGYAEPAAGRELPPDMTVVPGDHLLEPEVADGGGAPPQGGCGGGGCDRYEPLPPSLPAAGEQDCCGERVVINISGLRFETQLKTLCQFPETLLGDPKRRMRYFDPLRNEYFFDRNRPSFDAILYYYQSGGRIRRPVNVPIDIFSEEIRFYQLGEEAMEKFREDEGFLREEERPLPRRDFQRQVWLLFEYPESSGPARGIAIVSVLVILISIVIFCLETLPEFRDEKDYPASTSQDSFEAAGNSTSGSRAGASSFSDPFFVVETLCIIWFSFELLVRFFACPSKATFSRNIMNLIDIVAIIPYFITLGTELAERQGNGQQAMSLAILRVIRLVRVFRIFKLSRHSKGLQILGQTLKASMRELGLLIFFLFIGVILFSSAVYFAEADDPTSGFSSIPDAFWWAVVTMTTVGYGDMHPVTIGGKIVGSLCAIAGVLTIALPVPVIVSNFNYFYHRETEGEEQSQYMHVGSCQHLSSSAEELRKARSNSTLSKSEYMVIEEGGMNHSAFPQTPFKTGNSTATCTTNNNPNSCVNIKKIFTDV

EC50 [µM] | Structure (SMILES)
6.04 | CC[C@H](C)C(=O)O[C@H]1CCC=C2C=C[C@H](C)[C@H](CC[C@@H]3C[C@@H](O)CC(=O)O3)[C@H]21 [mevastatin]
4.85 | CCC(C)(C)C(=O)O[C@H]1C[C@@H](C)C=C2C=C[C@H](C)[C@H](CC[C@@H]3C[C@@H](O)CC(=O)O3)[C@H]21 [simvastatin]
